Data taken from patent US20250340510A1, “Substituted Phenylbenzenesulfonamide Derivatives and Uses Thereof” (Nine Square Therapeutics Corporation, priority 2022, published 2025).

Legend:
TFEB = TFEB translocation assay in HeLa cells (nuclear to cytoplasmic TFEB ratio, high-content imaging); format: cell-based; settings: Homo sapiens, 1.5 h, 90 mins incubation at 37° C., ratio of nuclear to cytoplasmic TFEB
Procedure: Example B2. TFEB Translocation Assay
Rabbit TFEB antibody, Cell Signaling Technology #4240S
PFA 16% MeOH-free, Election Microscopy Sciences #50-980-487
HCS CellMask Deep Red, ThermoFisher Scientific #H32721
Plates: Perkin Elmer Phenoplate #605730 black optically clear, tissue culture treated 384-well plate
Example B2.2 Method, Day 1: Cells Seeded in 384WP
Cells were seeded in the afternoon. The outer one row of the plate was not used to avoid outer well edge effects.
HeLa cells were detached using trypsin, and the cells were counted using a cell counter.
4000 HeLa cells were seeded per well in […] growth media (DMEM with 10% FBS, 1 mM sodium pyruvate and Pen-Strep).
Example B2.3 Method, Day 2: Assay with TRPML1 Compounds+Staining
Compounds were added to cells using a Tecan D300e dispenser.
Cells were incubated for 90 mins at 37° C. with the compounds (compound range: 80 nM-[…] (2× step dilution—8 dilution steps, 3 replicates per condition)
The cells were fixed by adding 16.5 μL of 16% PFA (4% final) and incubating for 15 min at room temperature.
The cells were washed with 3× in PBS-TX (PBS+0.1% Triton X-100)−1×100 μL followed by 2×50 μL.
The cells were blocked and permeabilized in 30 μL of blocking buffer (PBS-TX+5% goat serum) for 1 h.
The cells were incubated with TFEB antibody (1:200, CST 4240S) in 30 μL blocking buffer overnight at 4° C. The plates were kept damp to avoid evaporation.
Example B2.4 Method, Day 3: Staining+Imaging
The cells were washed 3× in PBS-TX—3×100 μL with a Biotek EL406 washer.
The cells were incubated with Goat anti-Rb Alexa-Fluor 488 (1:2000), cell mask (1:10,000) and Hoechst (1:10,000) in 30 μL blocking buffer for 1 h at room temperature. The solution was dispensed using a 5 μL peristaltic cassette (EL406).
The cells were washed 3× in PBS-TX—3×100 μL with a EL406 washer, then […] PBS was dispensed using a 5 μL peristaltic cassette (EL406).
The cells were imaged on an Operetta CLS High-content imaging system using a 20× water immersion objective (NA 1.0) the same day.
Image analysis was performed using Harmony V4.9 (Perkin Elmer). Briefly, nuclei were segmented from background-corrected images using Hoechst intensity, and cell body segmented using HCS CellMask DeepRed. A sliding parabola filter was applied to the AlexaFluor 488 channel (TFEB), before sum pixel intensity in the nuclear and cytoplasmic regions was calculated. A ratio of nuclear to cytoplasmic TFEB was used to define TFEB translocation from the cytosolic to nuclear compartment. The EC50 values derived by fitting the data to a sigmoidal dose response curve using Prism 9 (Graphpad).

TRPML1 = TRPML1 (Homo sapiens, UniProt Q9GZU1); test: Calcium flux in HEK293 overexpressing TRPML1 plasma membrane variant (FLIPR, Calcium 6 dye); format: cell-based; settings: HEK293/TRPML1-PM clone A5 cells; 4-parameter logistic fit; read-out: TRPML1 calcium flux (FLIPR) dose response: EC50
In short: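 HEK293 clone expressing plasma-membrane-targeted TRPML1 (N- and C-terminal dileucine motifs deleted), loaded with Calcium 6 dye for 2 h at 37 °C in HBSS/20 mM HEPES pH 7.4. Fluorescence recorded 10 s baseline then 170 s after compound addition. Max-minus-min response over baseline fitted by 4-parameter logistic for EC50.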

Chain of TRPML1 (Q9GZU1 17-572 limits assumed): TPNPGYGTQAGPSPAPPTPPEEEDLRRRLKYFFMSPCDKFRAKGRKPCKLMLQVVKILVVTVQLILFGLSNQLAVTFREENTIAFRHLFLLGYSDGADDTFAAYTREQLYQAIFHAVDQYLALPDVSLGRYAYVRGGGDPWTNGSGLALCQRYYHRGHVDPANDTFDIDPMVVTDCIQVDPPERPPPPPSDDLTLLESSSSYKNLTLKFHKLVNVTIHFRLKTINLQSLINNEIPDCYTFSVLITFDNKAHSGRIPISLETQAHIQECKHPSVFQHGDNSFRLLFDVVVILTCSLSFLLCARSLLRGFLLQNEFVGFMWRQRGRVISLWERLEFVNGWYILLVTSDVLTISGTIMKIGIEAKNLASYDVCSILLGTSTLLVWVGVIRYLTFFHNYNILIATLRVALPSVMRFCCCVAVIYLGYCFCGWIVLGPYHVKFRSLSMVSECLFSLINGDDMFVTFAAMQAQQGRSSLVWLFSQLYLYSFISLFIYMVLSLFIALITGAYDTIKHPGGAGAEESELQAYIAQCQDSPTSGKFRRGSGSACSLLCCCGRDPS

SMILES	EC50 (TFEB; HeLa)	EC50 (TRPML1)	EC50 (TFEB)
CN(Cc1cscn1)c1c(Cl)cccc1NS(=O)(=O)c1ccc(S(=O)(=O)N(C)C)cc1 [Compound 64, N1-(3-chloro-2-(methyl(thiazol-4-ylmethyl)amino)phenyl)-N4,N4-dimethylbenzene-1,4-disulfonamide]	1390 nM	453 nM	–
CN(c1ccc(C(F)(F)F)cc1NS(=O)(=O)c1ccc(S(=O)(=O)N(C)C)cc1)C1CCCCC1 [Compound 110, N1-(2-(cyclohexyl(methyl)amino)-5-(trifluoromethyl)phenyl)-N4,N4-dimethylbenzene-1,4-disulfonamide]	–	256 nM	246 nM
CN(CC12CC(C1)C2)c1ccccc1NS(=O)(=O)c1ccc(S(=O)(=O)N(C)C)cc1 [Compound 66, N1-(2-((bicyclo[1.1.1]pentan-1-ylmethyl)(methyl)amino)phenyl)-N4,N4-dimethylbenzene-1,4-disulfonamide]	927 nM	236 nM	–
CN(C)S(=O)(=O)c1ccc(S(=O)(=O)Nc2ccccc2N(C)[C@H]2CC[C@H](C)CC2)cc1 [Compound 28, N1,N1-dimethyl-N4-(2-(methyl((1r,4r)-4-methylcyclohexyl)amino)phenyl)benzene-1,4-disulfonamide]	1100 nM	350 nM	–

Now from value to molecule, other results behind:

EC50 (TFEB; HeLa)	EC50 (TRPML1)	SMILES	EC50 (TFEB)
3290 nM	812 nM	CN(c1ccccc1NS(=O)(=O)c1ccc(S(=O)(=O)N(C)C)cc1)C1CCOC(C)(C)C1 (stereo not drawn) [Compound 111, N1-(2-((2,2-dimethyltetrahydro-2H-pyran-4-yl)(methyl)amino)phenyl)-N4,N4-dimethylbenzene-1,4-disulfonamide]	–
529 nM	276 nM	CN(c1ccccc1NS(=O)(=O)c1ccc(S(=O)(=O)N(C)C)cc1)C1CCCCC1 [Compound 118, N1-(2-(cyclohexyl(methyl)amino)phenyl)-N4,N4-dimethylbenzene-1,4-disulfonamide]	–
